Experimental data as given in PubChem BioAssay (NCI).
“And” between values parts separate entries of the source, which are not always exact repeats. Identical values can stand only once.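 Dose response: 5 concentrations. Exposure: 48 h. Format: 96-well plates. Endpoint: linear interpolation; highest concentration if not reached. GI50 = concentration required for 50% inhibition of growth. TGI: concentration producing complete growth inhibition.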 Where a SMILES comes first, the peptide text is derived from it.

Legend:
Assay in all cases: NCI tumour cell line growth inhibition, 48 h
HCT-116 colon = tested on: HCT-116 colon
RXF 393 renal = tested on: RXF 393 renal
SF-539 CNS = tested on: SF-539 CNS
SN12C renal = tested on: SN12C renal
HOP-92 NSCLC = tested on: HOP-92 NSCLC
UACC-257 melanoma = tested on: UACC-257 melanoma
KM12 colon = tested on: KM12 colon
SW-620 colon = tested on: SW-620 colon
NCI-H460 lung = tested on: NCI-H460 lung
HS 578T breast = tested on: HS 578T breast

Row | Structure (SMILES) | TGI (HCT-116 colon) | TGI (RXF 393 renal) | TGI (SF-539 CNS) | TGI (SN12C renal) | TGI (HOP-92 NSCLC) | TGI (UACC-257 melanoma) | TGI (KM12 colon) | TGI (SW-620 colon) | TGI (NCI-H460 lung) | TGI (HS 578T breast) | GI50 (HCT-116 colon) | GI50 (RXF 393 renal) | GI50 (SF-539 CNS) | GI50 (SN12C renal) | GI50 (UACC-257 melanoma) | GI50 (KM12 colon) | GI50 (SW-620 colon) | GI50 (NCI-H460 lung) | GI50 (HS 578T breast) | GI50 (HOP-92 NSCLC)
1 | NC(=O)N/N=C(\C(=O)C(=O)Nc1ccc(Cl)c(C(F)(F)F)c1)c1nc2ccc(C(=O)c3ccccc3)cc2[nH]c1=O | > 100 µM | > 100 µM | > 100 µM | > 100 µM | 47.3 µM | > 100 µM | > 100 µM | > 100 µM | > 100 µM | – | – | – | – | – | – | – | – | – | – | –
2 | N=C1N(c2ccccc2)C(=O)C23CCCC2C13N1CCOCC1 (stereo unspecified) | > 100 µM | > 100 µM | > 100 µM | > 100 µM | > 100 µM | > 100 µM | > 100 µM | > 100 µM | > 100 µM | – | – | – | – | – | – | – | – | – | – | –
3 | CCC(C)OC(=O)C1C2CCC(O2)C1C(=O)O (stereo unspecified) | > 56.3 µM | > 56.2 µM | > 100 µM | > 100 µM | > 100 µM | > 100 µM | > 100 µM | > 32.1 µM | > 55.4 µM | – | – | – | – | – | – | – | – | – | – | –
4 | COC1C=CC(C(=O)[N+]2=Cc3[nH]c4ccccc4c3CC2)O1 (stereo unspecified) | > 100 µM | > 100 µM | > 100 µM | > 100 µM | > 100 µM | > 100 µM | > 100 µM | > 100 µM | > 100 µM | – | – | – | – | – | – | – | – | – | – | –
5 | Cc1cc(O)c(C(c2cccnc2)c2c(O)cc(C)[nH]c2=O)c(=O)[nH]1 | > 100 µM | > 100 µM | – | > 100 µM | – | > 100 µM | > 100 µM | – | > 100 µM | > 100 µM | – | – | – | – | – | – | – | – | – | –
6 | COC(=O)C1(C(=O)OC)CC2c3c(c4ccccc4n3C)CC(C1=O)N2Cc1ccccc1 (stereo unspecified) | > 100 µM | > 100 µM | > 100 µM | > 100 µM | > 100 µM | > 100 µM | > 100 µM | > 100 µM | > 100 µM | – | – | – | – | – | – | – | – | – | – | –
7 | O=C1N=C(c2ccccc2)OC1C(=O)c1ccccc1 (stereo unspecified) | > 100 µM | > 100 µM | – | > 100 µM | – | > 100 µM | > 100 µM | > 100 µM | > 100 µM | > 100 µM | – | – | – | – | – | – | – | – | – | –
8 | COC(=O)C(=O)C(C(=O)C(=O)Nc1ccc(Cl)cc1C)c1nc2ccc(C(=O)c3ccccc3)cc2[nH]c1=O (stereo unspecified) | > 100 µM | > 100 µM | > 100 µM | > 100 µM | > 100 µM | > 100 µM | > 100 µM | > 100 µM | > 100 µM | – | – | – | – | – | – | – | – | – | – | –
9 | Cc1ccccc1NC(=O)C(=O)C(c1cnc2ccc([N+](=O)[O-])cc2n1)[N+](=O)[O-] (stereo unspecified) | > 100 µM | > 100 µM | > 100 µM | > 100 µM | > 100 µM | > 100 µM | > 100 µM | > 100 µM | > 100 µM | – | – | – | – | – | – | – | – | – | – | –
10 | CC(C)CC(NC(=O)C(CC(C)C)NC(=O)C(Cc1cnc[nH]1)NC(=O)C(C)NC(=O)C(NC(=O)C(C)NC(=O)C(Cc1c[nH]c2ccccc12)NC(=O)C(CCC(=O)O)NC(=O)C(N)Cc1ccccc1)C(C)C)C(N)=O (stereo unspecified) (H-FEWAVAHLL-NH2; configuration not given here) | > 100 µM | > 100 µM | > 100 µM | > 100 µM | – | > 100 µM | > 100 µM | > 100 µM | > 100 µM | > 12.5 µM | > 100 µM | > 100 µM | > 100 µM | > 100 µM | > 100 µM | > 100 µM | > 100 µM | > 100 µM | – | –
11 | C#CCN=C(N/N=C/c1ccc([N+](=O)[O-])o1)NS(=O)(=O)c1cc(C)c(Cl)cc1SCC(N)=O | 20.3 µM | – | 31.7 µM | 29.4 µM | – | 27 µM | 38.9 µM | 17.1 µM | 29.9 µM | 49.5 µM | 8.03 µM | – | 17.3 µM | 15.5 µM | 13.9 µM | 18.8 µM | 4.44 µM | 12.5 µM | 19.8 µM | –
12 | COC(=O)/C(C#N)=C1\CCC(O)N1C (stereo unspecified) | > 100 µM | > 100 µM | > 100 µM | > 100 µM | – | > 100 µM | > 100 µM | > 100 µM | > 100 µM | – | – | – | – | – | – | – | – | – | – | –
13 | O=C1OCc2c1cc(F)cc2[N+](=O)[O-] | > 100 µM | > 100 µM | > 100 µM | > 100 µM | – | > 100 µM | > 100 µM | > 100 µM | > 100 µM | > 100 µM | > 100 µM | > 100 µM | > 100 µM | > 100 µM | > 100 µM | > 100 µM | > 100 µM | > 100 µM | > 100 µM | –
14 | COC(=O)N/N=C(/CCN1CCCC1)CC(c1ccccc1)c1c(O)c2ccccc2oc1=O (stereo unspecified) | > 100 µM | > 100 µM | > 100 µM | > 100 µM | – | > 100 µM | > 100 µM | > 100 µM | > 100 µM | – | – | – | – | – | – | – | – | – | – | –
15 | C=C[C@]1(C)CCC2=C(CCC3C2(C)CCC[C@]3(C)CO)C1 (stereo partly specified) | > 100 µM | 84.4 µM | > 100 µM | 43.6 µM | > 100 µM | > 100 µM | > 100 µM | > 100 µM | > 100 µM | – | – | – | – | – | – | – | – | – | – | –
16 | CC(=O)NC(CCCCNC(=O)N(CCCl)N=O)C(=O)NCc1ccccc1 (stereo unspecified) | > 100 µM | – | > 100 µM | > 100 µM | > 100 µM | > 100 µM | > 100 µM | > 100 µM | > 100 µM | – | – | – | – | – | – | – | – | – | – | –
17 | O=C1C(=O)N(C(=O)c2ccc(Cl)c(Cl)c2)c2ccc(Cl)cc21 | – | > 100 µM | > 100 µM | – | – | – | > 100 µM | > 100 µM | > 100 µM | – | – | – | – | – | – | – | – | – | – | –
18 | COc1cc(-c2cc(=O)c3ccccc3o2)ccc1N | > 100 µM | > 100 µM | > 100 µM | > 100 µM | > 100 µM | > 100 µM | > 100 µM | > 100 µM | > 100 µM | – | – | – | – | – | – | – | – | – | – | –
19 | COc1cc2nc(Sc3c([N+](=O)[O-])ncn3C)[nH]c2cc1OC | > 100 µM | 43.9 µM | 47.5 µM | 41.5 µM | 45 µM | 78.3 µM | > 100 µM | > 100 µM | > 100 µM | – | – | – | – | – | – | – | – | – | – | –
20 | C#CCOCn1cnc2c(=S)nc[nH]c21 | – | > 100 µM | – | > 100 µM | > 100 µM | > 100 µM | > 100 µM | > 100 µM | > 100 µM | – | – | – | – | – | – | – | – | – | – | –
21 | C/C=C/C=N/N(C(=O)c1cc([N+](=O)[O-])cc([N+](=O)[O-])c1)C1=NC(c2ccccc2)C(c2ccccc2)=NN1 (stereo unspecified) | 84.8 µM | > 100 µM | > 100 µM | > 100 µM | 62.2 µM | 70.8 µM | > 100 µM | > 100 µM | > 100 µM | – | – | – | – | – | – | – | – | – | – | –
22 | COc1cc2ccc3c4c(OC)cc(OC)c(OC)c4c(=O)n(C)c3c2cc1OC | – | 16.7 µM and > 44.7 µM | 10.5 µM and > 47.4 µM | – | 16.7 µM and 40.4 µM | 16.7 µM and > 49.2 µM | 2.57 µM | 4.43 µM | > 33.5 µM | – | 0.455 µM | 3.44 µM | 2.74 µM | 0.532 µM | 3.09 µM | 0.548 µM | 1.05 µM | – | – | 1.55 µM
